Ten compounds from PubChem BioAssay AID1259407 (Chemical Carcinogenesis Research Information System (CCRIS), 2018) can be followed below.

The data set deals with CCRIS mutagenicity, Ames/micronucleus/aberration tests. Nature of the data set: CCRIS mutagenicity studies.
The mark [1] stands for this setting: Test System: UDS RAT UROTHELIAL CELLS, Strain/Indicator: THY INCORP, Metabolic Activation: NONE.
Setting [2] is: Test System: AMES SALMONELLA TYPHIMURIUM, Strain/Indicator: TA100, Metabolic Activation: NONE, Method: PREINCUBATION
Setting [3] is: Test System: AMES SALMONELLA TYPHIMURIUM, Strain/Indicator: TA100, Metabolic Activation: NONE, Method: STANDARD PLATE.
The mark [4] stands for this setting: Test System: AMES SALMONELLA TYPHIMURIUM, Strain/Indicator: TA1535, Metabolic Activation: NONE, Method: PREINCUBATION
Setting [5] is: Test System: AMES SALMONELLA TYPHIMURIUM, Strain/Indicator: TA1535, Metabolic Activation: NONE, Method: STANDARD PLATE.
[6] abbreviates: Test System: AMES SALMONELLA TYPHIMURIUM, Strain/Indicator: TA98, Metabolic Activation: NONE, Method: PREINCUBATION
Where [7] appears, read: Test System: AMES SALMONELLA TYPHIMURIUM, Strain/Indicator: TA98, Metabolic Activation: NONE, Method: STANDARD PLATE.
[8] abbreviates: Test System: AMES SALMONELLA TYPHIMURIUM, Strain/Indicator: TA98, Metabolic Activation: RAT, LIVER, S-9, AROCLOR 1254, Method: STANDARD PLATE.
The mark [9] stands for this setting: Test System: AMES SALMONELLA TYPHIMURIUM, Strain/Indicator: TA100, Metabolic Activation: RAT, LIVER, S-9, AROCLOR 1254, Method: STANDARD PLATE.

Each structure is given as a SMILES string. Activity calls are given as the source filed them. No rule for the calls is given here.

As for `CCCN(COC(C)=O)N=O`, the mutagenic call under setting [1] was “active; positive”.
On to `c1ccc(Cc2ccc(CC3CO3)cc2)cc1` (configuration not stated), for which the mutagenic call was “inactive; negative” under setting [2], “active; positive” under setting [3], “inactive; negative” under setting [4] and “active; positive” under setting [5].
Consider `CCCOc1ccc(N)cc1N`, for which the mutagenic call is “inactive; negative” (Test System: AMES SALMONELLA TYPHIMURIUM, Strain/Indicator: TA97, Metabolic Activation: RAT, LIVER, S-9, AROCLOR 1254 (4%), Method: STANDARD PLATE); “active; positive” (Test System: AMES SALMONELLA TYPHIMURIUM, Strain/Indicator: TA97, Metabolic Activation: RAT, LIVER, S-9, AROCLOR 1254 (10%), Method: STANDARD PLATE); “active; positive” (Test System: AMES SALMONELLA TYPHIMURIUM, Strain/Indicator: TA1537, Metabolic Activation: RAT, LIVER, S-9, AROCLOR 1254 (4 OR 10%), Method: STANDARD PLATE); “active; positive” (Test System: AMES SALMONELLA TYPHIMURIUM, Strain/Indicator: TA1538, Metabolic Activation: RAT, LIVER, S-9, AROCLOR 1254 (4 OR 10%), Method: STANDARD PLATE).
On to `Cc1cc2ccccc2cc1[N+](=O)[O-]`, for which the mutagenic call under setting [6] is “inactive; negative”.
Turning to `CC(=O)OCN(C)N=O`, the mutagenic call is “active; positive” (Test System: AMES SALMONELLA TYPHIMURIUM, Strain/Indicator: TA100, Metabolic Activation: HAMSTER, LIVER, CYTOSOL, Method: PREINCUBATION); “active; positive” (Test System: AMES SALMONELLA TYPHIMURIUM, Strain/Indicator: TA100, Metabolic Activation: HAMSTER, LIVER, CYTOSOL, Method: STANDARD PLATE); “active; positive” (Test System: AMES SALMONELLA TYPHIMURIUM, Strain/Indicator: TA104, Metabolic Activation: HAMSTER, LIVER, CYTOSOL, Method: PREINCUBATION); “active; positive” (Test System: AMES SALMONELLA TYPHIMURIUM, Strain/Indicator: TA104, Metabolic Activation: HAMSTER, LIVER, CYTOSOL, Method: STANDARD PLATE); “active; positive” under setting [4]; “active; positive” under setting [1].
Take `Cc1cc(N=Nc2c(O)ccc3ccccc23)c(S(=O)(=O)O)cc1Cl`: the mutagenic call (End Point: IN VITRO CHROMOSOMAL ABERRATIONS, Test System: CHO CELLS, Metabolic Activation: NONE) is “inactive; negative”; the mutagenic call (End Point: IN VITRO CHROMOSOMAL ABERRATIONS, Test System: CHO CELLS, Metabolic Activation: RAT, LIVER, S-9, AROCLOR 1254) is “inactive; negative”; the mutagenic call (Test System: AMES SALMONELLA TYPHIMURIUM, Strain/Indicator: TA97, Metabolic Activation: HAMSTER, LIVER, S-9, AROCLOR 1254 (10%), Method: PREINCUBATION) was “inactive; negative”; the mutagenic call (Test System: AMES SALMONELLA TYPHIMURIUM, Strain/Indicator: TA97, Metabolic Activation: NONE, Method: PREINCUBATION) is “inactive; negative”; the mutagenic call (Test System: AMES SALMONELLA TYPHIMURIUM, Strain/Indicator: TA97, Metabolic Activation: RAT, LIVER, S-9, AROCLOR 1254 (10%), Method: PREINCUBATION) is “inactive; negative”; the mutagenic call (Test System: AMES SALMONELLA TYPHIMURIUM, Strain/Indicator: TA98, Metabolic Activation: HAMSTER, LIVER, S-9, AROCLOR 1254 (5, 10 OR 30%), Method: PREINCUBATION) was “inactive; negative”. The mutagenic call by setting is: (Test System: AMES SALMONELLA TYPHIMURIUM, Strain/Indicator: TA98, Metabolic Activation: RAT, LIVER, S-9, AROCLOR 1254 (10%), Method: PREINCUBATION) “inactive; negative”; (Test System: AMES SALMONELLA TYPHIMURIUM, Strain/Indicator: TA100, Metabolic Activation: HAMSTER, LIVER, S-9, AROCLOR 1254 (10%), Method: PREINCUBATION) “inactive; negative”; under setting [2], “inactive; negative”; (Test System: AMES SALMONELLA TYPHIMURIUM, Strain/Indicator: TA100, Metabolic Activation: RAT, LIVER, S-9, AROCLOR 1254 (10%), Method: PREINCUBATION) “inactive; negative”; (Test System: AMES SALMONELLA TYPHIMURIUM, Strain/Indicator: TA100, Metabolic Activation: RAT, LIVER, S-9, AROCLOR 1254, FLAVIN MONONUCLEOTIDE, Method: PREINCUBATION (PRIVAL METHOD)) “inactive; negative”; (Test System: AMES SALMONELLA TYPHIMURIUM, Strain/Indicator: TA100, Metabolic Activation: RAT, LIVER, S-9, AROCLOR 1254, Method: PREINCUBATION) “inactive; negative”. Further, the mutagenic call is “inactive; negative” (Test System: AMES SALMONELLA TYPHIMURIUM, Strain/Indicator: TA1535, Metabolic Activation: HAMSTER, LIVER, S-9, AROCLOR 1254 (10%), Method: PREINCUBATION); “inactive; negative” under setting [4]; “inactive; negative” (Test System: AMES SALMONELLA TYPHIMURIUM, Strain/Indicator: TA1535, Metabolic Activation: RAT, LIVER, S-9, AROCLOR 1254 (10%), Method: PREINCUBATION); “inactive; negative” (Test System: AMES SALMONELLA TYPHIMURIUM, Strain/Indicator: TA1537, Metabolic Activation: NONE, Method: PREINCUBATION).
Regarding `O=c1oc2ccccc2c(O)c1C1CCCc2ccccc21` (configuration not stated), the mutagenic call was “inactive; negative” (Test System: AMES SALMONELLA TYPHIMURIUM, Strain/Indicator: TA97, Metabolic Activation: NONE); “inactive; negative” (Test System: AMES SALMONELLA TYPHIMURIUM, Strain/Indicator: TA97, Metabolic Activation: S-9); “inactive; negative” (Test System: AMES SALMONELLA TYPHIMURIUM, Strain/Indicator: TA98, Metabolic Activation: NONE); “inactive; negative” (Test System: AMES SALMONELLA TYPHIMURIUM, Strain/Indicator: TA98, Metabolic Activation: S-9); “inactive; negative” (Test System: AMES SALMONELLA TYPHIMURIUM, Strain/Indicator: TA100, Metabolic Activation: NONE); “inactive; negative” (Test System: AMES SALMONELLA TYPHIMURIUM, Strain/Indicator: TA100, Metabolic Activation: S-9). The mutagenic call (Test System: AMES SALMONELLA TYPHIMURIUM, Strain/Indicator: TA102, Metabolic Activation: NONE) was “inactive; negative” and the mutagenic call (Test System: AMES SALMONELLA TYPHIMURIUM, Strain/Indicator: TA102, Metabolic Activation: S-9) is “inactive; negative”.
As to `N#CC1=Cc2cccc3cccc1c23`, the mutagenic call reads like this: under setting [7], “inactive; negative”; under setting [8], “inactive; negative”; under setting [3], “active; positive”; under setting [9], “active; positive”.
In the case of `C1COCO1`, the mutagenic call under setting [7] was “inactive; negative”; the mutagenic call under setting [8] is “inactive; negative”; the mutagenic call under setting [3] is “inactive; negative”; the mutagenic call under setting [9] is “inactive; negative”; the mutagenic call under setting [5] was “inactive; negative”; the mutagenic call (Test System: AMES SALMONELLA TYPHIMURIUM, Strain/Indicator: TA1535, Metabolic Activation: RAT, LIVER, S-9, AROCLOR 1254, Method: STANDARD PLATE) was “inactive; negative”. In addition, the mutagenic call runs as follows: (Test System: AMES SALMONELLA TYPHIMURIUM, Strain/Indicator: TA1537, Metabolic Activation: NONE, Method: STANDARD PLATE) “inactive; negative”; (Test System: AMES SALMONELLA TYPHIMURIUM, Strain/Indicator: TA1537, Metabolic Activation: RAT, LIVER, S-9, AROCLOR 1254, Method: STANDARD PLATE) “inactive; negative”; (Test System: AMES SALMONELLA TYPHIMURIUM, Strain/Indicator: TA1538, Metabolic Activation: NONE, Method: STANDARD PLATE) “inactive; negative”; (Test System: AMES SALMONELLA TYPHIMURIUM, Strain/Indicator: TA1538, Metabolic Activation: RAT, LIVER, S-9, AROCLOR 1254, Method: STANDARD PLATE) “inactive; negative”.
As to `O=CN(O)c1ccc2ccccc2c1`, the mutagenic call was “active; positive” under setting [6]; “active; positive” (Test System: AMES SALMONELLA TYPHIMURIUM, Strain/Indicator: TA98, Metabolic Activation: RAT, LIVER, CYTOSOL, Method: PREINCUBATION); “active; positive” (Test System: AMES SALMONELLA TYPHIMURIUM, Strain/Indicator: TA98, Metabolic Activation: RAT, LIVER, MICROSOMES, Method: PREINCUBATION).
